Measurements published in EPA's ToxValDB 9.5.
“And” between values parts separate entries of the source, which are not always exact repeats. Equal values may be shown once.

Tests used:
[1] = test system: Oryctolagus sp.; conditions: dermal; for LD50: acute, occlusive
[2] = test system: Rattus norvegicus; conditions: for LC50 / LD50: acute
[3] = test system: Mus musculus
[4] = test system: Mus musculus; conditions: short-term, duration: 28 days, oral, gavage, M, CD1
[5] = test system: Rattus norvegicus; conditions: oral, gavage
[6] = test system: Canidae; conditions: chronic; duration: 1 years; oral; diet; M/F; Dog Other; tremors
[7] = test system: Rattus norvegicus; conditions: oral
[8] = reproduction developmental, duration: 4 weeks, Inhalation, F, CD
[9] = reproduction developmental, duration: 4 weeks, Inhalation, M, CD
[10] = reproduction developmental, duration: 10 days, oral, gavage, Crl:CD(SD)
[11] = short-term, duration: 2 weeks, oral, gavage, Fischer 344
[12] = subchronic, duration: 13 weeks, inhalation, Sprague-Dawley
[13] = subchronic, duration: 13 weeks, oral, gavage, F, Fischer 344
[14] = subchronic, duration: 13 weeks, oral, gavage, M, Fischer 344
[15] = short-term, duration: 2 weeks, oral, gavage, B6C3F1
[16] = subchronic, duration: 13 weeks, inhalation, B6C3F1
[17] = subchronic, duration: 13 weeks, oral, gavage, B6C3F1
[18] = Hershberger, duration: 7 days, gavage, Sprague-Dawley, active + Antiandrogenic + anti-androgenic + no AST effects in pairwise comparison but increasing trend for LABC and DL prostate / …

## N#Cc1cccc(C#N)c1 [1,3-Benzenedicarbonitrile]
[1]
  LD50: > 2000 mg/kg
[1]; short-term, duration: 3 weeks, non-occlusive, New Zealand
  NOAEL: 500 mg/kg-day
[2]; Inhalation, Sprague-Dawley
  LC50: > 8970 mg/m3
[2]; oral, gavage
  LD50: > 5010 mg/kg
[2]; chronic, duration: 99 days, oral, diet, F, Charles River Crl:CD BR VAF/PLUS
  NOAEL: 5 mg/kg-day
[2]; chronic, duration: 99 days, oral, diet, M, Charles River Crl:CD BR VAF/PLUS
  NOAEL: 1 mg/kg-day
[2]; reproduction developmental, duration: 122 days, oral, diet, F
  NOAEL: 25 mg/kg-day
[2]; short-term, duration: 14 days, Inhalation, Sprague-Dawley
  NOAEL: 190 mg/m3
[3]; chronic, duration: 91 days, oral, diet, CD1
  NOAEL: 20 mg/kg-day

## Oc1cc(Cl)ccc1Cl [2,5-Dichlorophenol]
[1]; New Zealand
  LD50: > 8000 mg/kg
[1]; reproduction developmental, duration: 21 days, non-occlusive, New Zealand
  LOAEL: 1 mg/kg-day
[2]; inhalation, Spartan
  LC50: > 185000 mg/m3
[2]; oral, gavage, Wistar
  LD50: 2480 mg/kg
[2]; reproduction developmental, duration: 4 weeks, inhalation, Sprague-Dawley
  LOAEL: 0.1 mg/L
[3]; acute, oral, gavage, CD1
  LD50: ≥ 946 mg/kg and ≤ 1600 mg/kg

## O=C(O)CC(F)(F)C(F)(F)C(F)(F)C(F)(F)C(F)(F)C(F)(F)F [2-(Perfluorohexyl)ethanoic acid]
[4]; Liver: Alanine Aminotransferase (ALT) + Liver: Albumin (A) + Liver: Alkaline Phosphatase (ALP) + Liver: Aspartate Aminotransferase (AST) + …
  NOAEL: 5 mg/kg-day
[4]; Liver: Total Cholesterol (CHOL)
  LOAEL: 5 mg/kg-day

## C1CN(SSN2CCOCC2)CCO1 [4,4'-Dithiodimorpholine]
[1]; New Zealand
  LD50: > 5010 mg/kg
[2]; oral, gavage, Sprague-Dawley
  LD50: 5600 mg/kg
[2]; [8]
  LOAEL: 29 mg/m3
  NOAEL: 9.9 mg/m3
[2]; [9]
  LOAEL: 9.9 mg/m3
  NOAEL: 1.1 mg/m3
[2]; [10]
  LOAEL: 500 mg/kg-day
  NOAEL: 100 mg/kg-day
[3]; acute, inhalation
  LC50: 1620 mg/m3

## C=CC1CC=CCC1 (stereo not given) [4-Vinylcyclohexene]
[5]; subchronic, duration: 13 weeks, M/F, Fischer 344, Deaths + Body Weight Changes: decrease + Histopathology: Kidney-Hyaline droplet degeneration Glandular stomach-Inflammation
  NOEL: < 50 mg/kg-day
[5]; subchronic, M, Sprague-Dawley, Clinical Observation: Salivation Locomotor activity decrease + Relative Organ Weight: Kidney increase + Histopathology: Stomach/Glandular …
  NOEL: < 2 mg/kg-day
[2]; inhalation
  LC50: 27000 mg/m3 and < 35400 mg/m3
[2]; oral, gavage, Carworth Wistar
  LD50: 2560 mg/kg
[2]; short-term, duration: 2 weeks, inhalation, F, Sprague-Dawley
  NOAEC: 6640 mg/m3
[2]; short-term, duration: 2 weeks, inhalation, M, Sprague-Dawley
  NOAEC: 3190 mg/m3
[2]; [11]
  LOAEL: 1250 mg/kg-day
  NOAEL: 600 mg/kg-day
[2]; [12]
  LOAEL: 4420 mg/m3
  NOAEL: 1110 mg/m3
[2]; [13]
  LOAEL: 800 mg/kg-day
  NOAEL: 400 mg/kg-day
[2]; [14]
  LOAEL: 400 mg/kg-day
  NOAEL: 200 mg/kg-day
[3]; acute, inhalation
  LC50: 46900 mg/m3
[3]; short-term, duration: 2 weeks, inhalation, B6C3F1
  NOAEL: 3190 mg/m3
[3]; [15]
  LOAEL: 2500 mg/kg-day
  NOAEL: 1250 mg/kg-day
[3]; [16]
  LOAEL: 4420 mg/m3
  NOAEL: 1110 mg/m3
[3]; [17]
  LOAEL: 1200 mg/kg-day
  NOAEL: 600 mg/kg-day

## Cc1c(COC(=O)[C@@H]2[C@H](/C=C(\Cl)C(F)(F)F)C2(C)C)cccc1-c1ccccc1 [Bifenthrin]
[5]; short-term, duration: 28 days, M/F, Clinical Observation: Tremor
  NOEL: 50 ppm
[6]
  LEL: 3 mg/kg-day
  NOEL: 1.5 mg/kg-day
[7]; [18]
  LOEL: 13.5 mg/kg-day
  NOEL: 10 mg/kg-day
[7]; Hershberger, duration: 10 days, gavage, Sprague-Dawley, inactive + Negative + Negative + neither + negative
  NOEL: 10 mg/kg-day
[7]; uterotrophic, duration: 3 days, Active
  LEL: 13.2 mg/kg-day
